According to patent US8912125B2, “Control of trifluralin-resistant weeds with dithiopyr” (Dow AgroSciences, LLC., priority 2010, dated 2014):

Experiments:
[1] = system: ryegrass biotype 1252.6 (with trifluralin resistance); test: Pre-emergence (simulated IBS) pot test, % survival of ryegrass biotype 1252.6; assay type: in vivo; conditions: 5 weeks after herbicide application
Protocol: (§1) Five ryegrass biotypes with varying degrees of resistance to trifluralin (1251, 1216.1, 1252.6, 1252.2 and 1145.4) and two non-resistant biotypes (SLR4 and 1261.1) were tested. Dithiopyr was applied using a simulated incorporated by sowing (IBS) system for ryegrass and wheat.
(§2) Ryegrass: A set volume of seeds (50 seeds approx) were placed onto the surface of sandy potting soil in 0.55 L polyethylene pots. Dithiopyr was sprayed directly onto the ryegrass seed soil surface at rates of 250, 500 and 1000 grams active ingredient per hectare (g ai/ha). The seed and soil were then covered with a soil mixture to a depth of 5 mm (the soil mixture included 385 L peatmoss, 615 L coarse sand, 1024 g Ag. lime, 564 g hydrated lime, and 3.7 Kg Osmocote® Exact™ (Everris International B.V.; Geldermalsen, The Netherlands) with a pH of 6.3).
(§3) Herbicide application was performed using a laboratory boom sprayer equipped with T-jet fan nozzles at a speed of 1 ms^−1. Output from the sprayer was calibrated at 110 L ha^−1 at a pressure of 250 kPa. Using this testing procedure, volatilization losses were minimized by the immediate and even incorporation of each herbicide. The experiment was established as a randomized block design with three replications and was conducted outdoors during mid winter (July-August).
(§4) Herbicide effects on wheat and ryegrass seedlings were measured 5 weeks after spraying. Seedlings were considered emerged if they had reached the 2-leaf stage at this time. Survival % was recorded by comparing the surviving number of 2-3 leaved seedlings in the sprayed treatments to the […] (Tables 1 and 2).

[2] = system: ryegrass biotype 1261.1 (without trifluralin resistance); test: Pre-emergence (simulated IBS) pot test, % survival of ryegrass biotype 1261.1; assay type: in vivo; conditions: 5 weeks after herbicide application
Protocol: as §1, §2, §3, §4

[3] = system: ryegrass biotype 1145.4 (with trifluralin resistance); test: Pre-emergence (simulated IBS) pot test, % survival of ryegrass biotype 1145.4; assay type: in vivo; conditions: 5 weeks after herbicide application
Protocol: as §1, §2, §3, §4

[4] = system: ryegrass biotype 1251 (with trifluralin resistance); test: Pre-emergence (simulated IBS) pot test, % survival of ryegrass biotype 1251; assay type: in vivo; conditions: 5 weeks after herbicide application
Protocol: as §1, §2, §3, §4

[5] = system: ryegrass biotype 1252.2 (with trifluralin resistance); test: Pre-emergence (simulated IBS) pot test, % survival of ryegrass biotype 1252.2; assay type: in vivo; conditions: 5 weeks after herbicide application
Protocol: as §1, §2, §3, §4

[6] = system: ryegrass biotype 1216.1 (with trifluralin resistance); test: Pre-emergence (simulated IBS) pot test, % survival of ryegrass biotype 1216.1; assay type: in vivo; conditions: 5 weeks after herbicide application
Protocol: as §1, §2, §3, §4

[7] = system: ryegrass biotype SLR4 (without trifluralin resistance); test: Pre-emergence (simulated IBS) pot test, % survival of ryegrass biotype SLR4; assay type: in vivo; conditions: 5 weeks after herbicide application
Protocol: as §1, §2, §3, §4

Correll wheat = test: Crop safety on wheat, pre-emergence (simulated IBS) pot test, % dry weight and % survival; assay type: in vivo, wheat (var. Correll); conditions: 5 weeks after application
Protocol: as §1
Wheat: Ten wheat seeds (var. Correll) were buried 1 cm deep. The herbicides were sprayed onto the soil surface and then the herbicide covered with another 5 mm of soil. This system of seed separation ensured crop selectivity
as §3, §4
In addition, wheat biomass was recorded by harvesting the plants and measuring dry weight to indicate crop safety. The dry weights from the treated plants were compared to the weight of untreated wheat and the percentage biomass calculated (Table 2).

Row | Compound | % survival of ryegrass, Mean ([1]; 250 g ai/ha) [%] | % survival of ryegrass, Mean ([1]; 500 g ai/ha) [%] | % survival of ryegrass, Mean ([1]; 1000 g ai/ha) [%] | % survival of ryegrass, Mean ([2]; 250 g ai/ha) [%] | % survival of ryegrass, Mean ([2]; 500 g ai/ha) [%] | % survival of ryegrass, Mean ([2]; 1000 g ai/ha) [%] | % survival of ryegrass, Mean ([3]; 250 g ai/ha) [%] | % survival of ryegrass, Mean ([3]; 500 g ai/ha) [%] | % survival of ryegrass, Mean ([3]; 1000 g ai/ha) [%] | % survival of ryegrass, Mean ([4]; 250 g ai/ha) [%] | % survival of ryegrass, Mean ([4]; 500 g ai/ha) [%] | % survival of ryegrass, Mean ([4]; 1000 g ai/ha) [%] | % survival of ryegrass, Mean ([5]; 250 g ai/ha) [%] | % survival of ryegrass, Mean ([5]; 500 g ai/ha) [%] | % survival of ryegrass, Mean ([5]; 1000 g ai/ha) [%] | % survival of ryegrass, Mean ([6]; 250 g ai/ha) [%] | % survival of ryegrass, Mean ([6]; 500 g ai/ha) [%] | % survival of ryegrass, Mean ([6]; 1000 g ai/ha) [%] | % survival of ryegrass, Mean ([7]; 250 g ai/ha) [%] | % survival of ryegrass, Mean ([7]; 500 g ai/ha) [%] | further results
1 | CCCN(CCC)c1c([N+](=O)[O-])cc(C(F)(F)F)cc1[N+](=O)[O-] [Trifluralin, 2,6-dinitro-N,N-dipropyl-4-(trifluoromethyl)benzenamine] | 33.8 | 13.1 | 26.3 | 5.6 | 0 | 1.1 | 100 | 100 | 14.1 | 97.7 | 68.2 | 27.3 | 29.1 | 13.9 | 3.8 | 40.4 | 19.1 | 9 | 2.9 | 0 | % survival of ryegrass, Mean ([7]; 1000 g ai/ha): 0%
2 | CSC(=O)c1c(C(F)F)nc(C(F)(F)F)c(C(=O)SC)c1CC(C)C [Dithiopyr, S,S′-dimethyl 2-(difluoromethyl)-4-(2-methylpropyl)-6-(trifluoromethyl)-3,5-pyridinedicarbothioate] | 0 | 0 | 0 | 0 | 0 | 0 | 0 | 0 | 0 | 0 | 0 | 0 | 0 | 0 | 0 | 0 | 0 | 0 | 0 | 0 | Survival (%) Mean (Correll wheat; 250 g ai/ha): 82.2%; Survival (%) Mean (Correll wheat; 500 g ai/ha): 60.0%; Survival (%) Mean (Correll wheat; 1000 g ai/ha): 28.9%; % survival of ryegrass, Mean ([7]; 1000 g ai/ha): 0%
